Test results as given in patent US20250144223A1, “PROTEIN DEGRADATION COMPOUND BASED ON NAMPT TARGET PROTEIN AND APPLICATION THEREOF” (GLUETACS THERAPEUTICS (SHANGHAI) CO., LTD., priority 2021, published 2025).

Key:
Format in all cases: cell-based
Jurkat = assay: CellTiter-Glo Luminescent Cell Viability Assay, half inhibitory concentration (IC50) on tumor cell proliferation; conditions: Homo sapiens, Jurkat cells, 72 h treatment
How it was run: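 Jurkat cells seeded at 20,000 cells/well in serum-containing RPMI1640, treated after 24 h with serially diluted compound for 72 h at 37 °C, 5% CO2. Viability read by CellTiter-Glo luminescence; IC50 calculated from growth-inhibition curves.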

HL60 tumor cells = assay: In vitro cytotoxicity assay against tumor cells (DAPI staining, flow cytometry); conditions: 10 nM, 4th day
Experimental: (§1) The tumor cells used herein were cultured in a cell culture medium at 37° C. in an incubator with 5% CO2, where the cell culture medium was supplemented with 10% FBS, as well as penicillin at a final concentration of 100 U/mL and streptomycin at a final concentration of 100 μg/mL. Prior to experimentation, all cells used were identified as correct cells by STR cells, and were negative for mycoplasma through routine testing.
(§2) MOLT4 and HL60 tumor cells were seeded separately in 12-well plates containing 1 mL of RPMI1640 medium, with a cell seeding density of 0.5×10^6 cells/mL. On the second day, the parent inhibitor FK866 and the compounds SIAIS630120 and SIAIS630121 of the present disclosure were individually dissolved in DMSO to obtain stock solutions of the respective compounds at a concentration of 10 μM. Subsequently, 1 μL of the 10 μM compound stock solution was added to 1 mL of cell culture medium to achieve a final concentration of 10 nM. The cells were treated continuously for 4 days, and cell viability was measured once daily during this period. Specifically, cells were sampled once a day, adjusted to a concentration of 1×10^6/mL using a cell staining buffer, stained with 4′,6-diamidino-2-phenylindole dihydrochloride (DAPI) (1:250), and then analyzed with a flow cytometer. Initially, the cells were gated based on differences in cell size, followed by DAPI staining to gate for dead cells. Finally, the cytotoxic efficiency was assessed by calculating the DAPI-positive ratio.

MOLT4 tumor cells = assay: as above; conditions: 10 nM, 4th day; for cytotoxicity, more effective than FK866: difference to FK866
Experimental: as §1, §2

For `O=C(/C=C/c1cccnc1)NCCCCC1CCN(C(=O)c2ccc(N3CCN(CCCCCC#Cc4cccc5c4CN(C4CCC(=O)NC4=O)C5=O)CC3)cc2)CC1` (stereo not shown) [SIAIS630120, (E)-N-(4-(1-(4-(4-(7-(2-(2,6-dioxopiperidin-3-yl)-1-oxoisoindolin-4-yl)hept-6-yn-1-yl)piperazin-1-yl)benzoyl)piperidin-4-yl)butyl)-3-(pyridin-3-yl)acrylamide], the IC50 (Jurkat) was 6.24 nM, the “cytotoxic effect (DAPI-positive ratio)” value (HL60 tumor cells) was 95% and the “cytotoxicity (DAPI-positive ratio)” value (MOLT4 tumor cells) was “approximately 50%”. For the same compound, the “cytotoxicity, more effective than FK866” value (MOLT4 tumor cells) was 20%.

In the case of `O=C(/C=C/c1cccnc1)NCCCCC1CCN(C(=O)c2ccc(N3CCN(CCCCCCC#Cc4cccc5c4CN(C4CCC(=O)NC4=O)C5=O)CC3)cc2)CC1` (stereo not shown) [SIAIS630121, (E)-N-(4-(1-(4-(4-(8-(2-(2,6-dioxopiperidin-3-yl)-1-oxoisoindolin-4-yl)oct-7-yn-1-yl)piperazin-1-yl)benzoyl)piperidin-4-yl)butyl)-3-(pyridin-3-yl)acrylamide], the IC50 (Jurkat) is reported as 4.83 nM, the “cytotoxic effect (DAPI-positive ratio)” value (HL60 tumor cells) is reported as 95% and the “cytotoxicity (DAPI-positive ratio)” value (MOLT4 tumor cells) is reported as “approximately 50%”. For the same compound, the “cytotoxicity, more effective than FK866” value (MOLT4 tumor cells) was 20%.

`O=C(/C=C/c1cccnc1)NCCCCC1CCN(C(=O)c2ccc(N3CCN(C(=O)CCSc4cccc5c4C(=O)N(C4CCC(=O)NC4=O)C5=O)CC3)cc2)CC1` (stereo not shown) [SIAIS632028, (E)-N-(4-(1-(4-(4-(3-((2-(2,6-dioxopiperidin-3-yl)-1,3-dioxoisoindolin-4-yl)thio)propanoyl)piperazin-1-yl)benzoyl)piperidin-4-yl)butyl)-3-(pyridin-3-yl)acrylamide] showed an IC50 (Jurkat) of 105 nM.

`O=C(/C=C/c1cccnc1)NCCCCC1CCN(C(=O)c2ccc(N3CCN(C(=O)CCCCSc4cccc5c4C(=O)N(C4CCC(=O)NC4=O)C5=O)CC3)cc2)CC1` (stereo not shown) [SIAIS632029, (E)-N-(4-(1-(4-(4-(5-((2-(2,6-dioxopiperidin-3-yl)-1,3-dioxoisoindolin-4-yl)thio)pentanoyl)piperazin-1-yl)benzoyl)piperidin-4-yl)butyl)-3-(pyridin-3-yl)acrylamide] was tested, and the IC50 (Jurkat) was 28.7 nM.

In the case of `O=C(/C=C/c1cccnc1)NCCCCC1CCN(C(=O)c2ccc(N3CCN(C(=O)CCCCCSc4cccc5c4C(=O)N(C4CCC(=O)NC4=O)C5=O)CC3)cc2)CC1` (stereo not shown) [SIAIS632030, (E)-N-(4-(1-(4-(4-(6-((2-(2,6-dioxopiperidin-3-yl)-1,3-dioxoisoindolin-4-yl)thio)hexanoyl)piperazin-1-yl)benzoyl)piperidin-4-yl)butyl)-3-(pyridin-3-yl)acrylamide], the IC50 (Jurkat) is reported as 11 nM.

For `O=C(/C=C/c1cccnc1)NCCCCC1CCN(C(=O)c2ccc(N3CCN(C(=O)CCCCCCSc4cccc5c4C(=O)N(C4CCC(=O)NC4=O)C5=O)CC3)cc2)CC1` (stereo not shown) [SIAIS632031, (E)-N-(4-(1-(4-(4-(7-((2-(2,6-dioxopiperidin-3-yl)-1,3-dioxoisoindolin-4-yl)thio)heptanoyl)piperazin-1-yl)benzoyl)piperidin-4-yl)butyl)-3-(pyridin-3-yl)acrylamide], the IC50 (Jurkat) was 24.4 nM.

With `O=C(/C=C/c1cccnc1)NCCCCC1CCN(C(=O)c2ccc(N3CCN(C(=O)CCCCCCCSc4cccc5c4C(=O)N(C4CCC(=O)NC4=O)C5=O)CC3)cc2)CC1` (stereo not shown) [SIAIS632032, (E)-N-(4-(1-(4-(4-(8-((2-(2,6-dioxopiperidin-3-yl)-1,3-dioxoisoindolin-4-yl)thio)octanoyl)piperazin-1-yl)benzoyl)piperidin-4-yl)butyl)-3-(pyridin-3-yl)acrylamide] the IC50 (Jurkat) was 192 nM.

`O=C(/C=C/c1cccnc1)NCCCCC1CCN(C(=O)c2ccc(N3CCN(C(=O)COc4cccc5c4C(=O)N(C4CCC(=O)NC4=O)C5=O)CC3)cc2)CC1` (stereo not shown) [SIAIS632033, (E)-N-(4-(1-(4-(4-(2-((2-(2,6-dioxopiperidin-3-yl)-1,3-dioxoisoindolin-4-yl)oxy)acetyl)piperazin-1-yl)benzoyl)piperidin-4-yl)butyl)-3-(pyridin-3-yl)acrylamide] showed an IC50 (Jurkat) of 78.7 nM.

Work on `O=C(/C=C/c1cccnc1)NCCCCC1CCN(C(=O)c2ccc(N3CCN(C(=O)CCCCOc4cccc5c4C(=O)N(C4CCC(=O)NC4=O)C5=O)CC3)cc2)CC1` (stereo not shown) [SIAIS632034, (E)-N-(4-(1-(4-(4-(5-((2-(2,6-dioxopiperidin-3-yl)-1,3-dioxoisoindolin-4-yl)oxy)pentanoyl)piperazin-1-yl)benzoyl)piperidin-4-yl)butyl)-3-(pyridin-3-yl)acrylamide] yielded an IC50 (Jurkat) of 95.1 nM.

For `O=C(/C=C/c1cccnc1)NCCCCC1CCN(C(=O)c2ccc(N3CCN(C(=O)CCCCCOc4cccc5c4C(=O)N(C4CCC(=O)NC4=O)C5=O)CC3)cc2)CC1` (stereo not shown) [SIAIS632035, (E)-N-(4-(1-(4-(4-(6-((2-(2,6-dioxopiperidin-3-yl)-1,3-dioxoisoindolin-4-yl)oxy)hexanoyl)piperazin-1-yl)benzoyl)piperidin-4-yl)butyl)-3-(pyridin-3-yl)acrylamide], the IC50 (Jurkat) was 8.52 nM.

In the case of `O=C(/C=C/c1cccnc1)NCCCCC1CCN(C(=O)c2ccc(N3CCN(C(=O)CCCCCCOc4cccc5c4C(=O)N(C4CCC(=O)NC4=O)C5=O)CC3)cc2)CC1` (stereo not shown) [SIAIS632036, (E)-N-(4-(1-(4-(4-(7-((2-(2,6-dioxopiperidin-3-yl)-1,3-dioxoisoindolin-4-yl)oxy)heptanoyl)piperazin-1-yl)benzoyl)piperidin-4-yl)butyl)-3-(pyridin-3-yl)acrylamide], the IC50 (Jurkat) is reported as 29.3 nM.

`O=C(/C=C/c1cccnc1)NCCCCC1CCN(C(=O)c2ccc(N3CCN(CCCCCC#Cc4cccc5c4CN(C4CCC(=O)NC4=O)C5=O)CC3)nc2)CC1` (stereo not shown) [SIAIS632039, (E)-N-(4-(1-(6-(4-(7-(2-(2,6-dioxopiperidin-3-yl)-1-oxoisoindolin-4-yl)hept-6-yn-1-yl)piperazin-1-yl)nicotinoyl)piperidin-4-yl)butyl)-3-(pyridin-3-yl)acrylamide] gave an IC50 (Jurkat) of 2.75 nM.

`O=C(/C=C/c1cccnc1)NCCCCC1CCN(C(=O)c2ccc(N3CCN(CCCCCCC#Cc4cccc5c4CN(C4CCC(=O)NC4=O)C5=O)CC3)nc2)CC1` (stereo not shown) [SIAIS632040, (E)-N-(4-(1-(6-(4-(8-(2-(2,6-dioxopiperidin-3-yl)-1-oxoisoindolin-4-yl)oct-7-yn-1-yl)piperazin-1-yl)nicotinoyl)piperidin-4-yl)butyl)-3-(pyridin-3-yl)acrylamide] gave an IC50 (Jurkat) of 5.67 nM.

With `O=C(/C=C/c1cccnc1)NCCCCC1CCN(C(=O)c2ccc(N3CCN(CCCCSc4cccc5c4CN(C4CCC(=O)NC4=O)C5=O)CC3)nc2)CC1` (stereo not shown) [SIAIS632041, (E)-N-(4-(1-(6-(4-(4-((2-(2,6-dioxopiperidin-3-yl)-1-oxoisoindolin-4-yl)thio)butyl)piperazin-1-yl)nicotinoyl)piperidin-4-yl)butyl)-3-(pyridin-3-yl)acrylamide] the IC50 (Jurkat) was 1.03 nM.

For `Cc1ncsc1-c1ccc(CNC(=O)[C@@H]2C[C@@H](O)CN2C(=O)[C@@H](NC(=O)CCCCC(=O)N2CCN(C3CCN(c4ccc(C(=O)N5CCC(CCCCNC(=O)/C=C/c6cccnc6)CC5)nn4)CC3)CC2)C(C)(C)C)cc1` [SIAIS633063, (2S,4R)-1-((S)-3,3-dimethyl-2-(6-oxo-6-(4-(1-(6-(4-(4-((E)-3-(pyridin-3-yl)acrylamido)butyl)piperidine-1-carbonyl)pyridazin-3-yl)piperidin-4-yl)piperazin-1-yl)hexanamido)butanoyl)-4-hydroxy-N-(4-(4-methylthiazol-5-yl)benzyl)pyrrolidine-2-carboxamide], the IC50 (Jurkat) was 255 nM.

`O=C(/C=C/c1cccnc1)NCCCCC1CCN(C(=O)c2ccc(N3CCC(N4CCN(CCCCCC#Cc5cccc6c5CN(C5CCC(=O)NC5=O)C6=O)CC4)CC3)nc2)CC1` (stereo not shown) [SIAIS633093, (E)-N-(4-(1-(6-(4-(4-(7-(2-(2,6-dioxopiperidin-3-yl)-1-oxoisoindolin-4-yl)hept-6-yn-1-yl)piperazin-1-yl)piperidin-1-yl)nicotinoyl)piperidin-4-yl)butyl)-3-(pyridin-3-yl)acrylamide] gave an IC50 (Jurkat) of 15.8 nM.

Work on `O=C(/C=C/c1cccnc1)NCCCCC1CCN(C(=O)c2ccc(N3CCC(N4CCN(CCCCCCC#Cc5cccc6c5CN(C5CCC(=O)NC5=O)C6=O)CC4)CC3)nc2)CC1` (stereo not shown) [SIAIS633094, (E)-N-(4-(1-(6-(4-(4-(8-(2-(2,6-dioxopiperidin-3-yl)-1-oxoisoindolin-4-yl)oct-7-yn-1-yl)piperazin-1-yl)piperidin-1-yl)nicotinoyl)piperidin-4-yl)butyl)-3-(pyridin-3-yl)acrylamide] yielded an IC50 (Jurkat) of 6.18 nM.

`O=C(/C=C/c1cccnc1)NCCCCC1CCN(C(=O)c2ccc(N3CCN(CCCCCCOc4cccc5c4CN(C4CCC(=O)NC4=O)C5=O)CC3)cc2)CC1` (stereo not shown) [SIAIS633097, (E)-N-(4-(1-(4-(4-(6-((2-(2,6-dioxopiperidin-3-yl)-1-oxoisoindolin-4-yl)oxy)hexyl)piperazin-1-yl)benzoyl)piperidin-4-yl)butyl)-3-(pyridin-3-yl)acrylamide] gave an IC50 (Jurkat) of 79 nM.

For `O=C(/C=C/c1cccnc1)NCCCCC1CCN(C(=O)c2ccc(N3CCN(CCCCCCCOc4cccc5c4CN(C4CCC(=O)NC4=O)C5=O)CC3)cc2)CC1` (stereo not shown) [SIAIS633098, (E)-N-(4-(1-(4-(4-(7-((2-(2,6-dioxopiperidin-3-yl)-1-oxoisoindolin-4-yl)oxy)heptyl)piperazin-1-yl)benzoyl)piperidin-4-yl)butyl)-3-(pyridin-3-yl)acrylamide], the IC50 (Jurkat) was 33.9 nM.
